The values below are quoted from earlier work in paper PMC10940605, “Design, synthesis and in vitro anticancer activity of some new lomefloxacin derivatives” (Scientific Reports, 2024).

A word on the IC50: it is the point on the concentration scale where inhibition reaches its midpoint.

The subject of data set [1] is MCF-7 cancer cell lines. Also noted: method as in PMID 22301863. The settings on record: MCF-7, Fig. 2; cited from earlier work.
The test system of data set [2] is SMMC7721 cancer cell lines. Also on record: method as in PMID 22301863. The settings on record: SMMC7721, Fig. 2; cited from earlier work.
Data set [3] deals with HCT-8 cancer cell lines. Also noted: method as in PMID 22301863. The note with it: HCT-8, Fig. 2; cited from earlier work.
The target of data set [4] is Topoisomerase II. Also on record: method as in PMID 10051540, PMID 8824299, PMID 9651360. The settings on record: Topoisomerase II catalytic inhibitor, Fig. 1; cited from earlier work.

For `O=C(N/N=C/c1ccc2c(c1)OCO2)c1cn(C2CC2)c2cc(N3CCNCC3)c(F)cc2c1=O` [QNT4], the IC50 is 3.71 µM in data set [1], 2.96 µM in data set [2] and 3.69 µM in data set [3].

In the case of `O=C1NC(=S)NC(=O)C1C(=O)Nc1ccccc1` [Merbarone], the IC50 in data set [4] is 20 µM.
